Source: patent publication US20250195513A1, “DEGRADATION OF IRAK4 BY CONJUGATION OF IRAK4 INHIBITORS WITH E3 LIGASE LIGAND AND METHODS OF USE” (BeiGene, Ltd., priority 2022, published 2025)
pIC50: −log10 of the molar value.

Assays:
Format in all cases: cell-based
[1] = tested on: TNF-α production in THP-1 cells; experiment: TNF-α Production Assay in THP-1 Cells (LPS stimulated); details: Homo sapiens, THP-1, 24 h; for Emax: maximum inhibition, read-out: TNF-α (THP-1) 24 h IMax
Protocol: THP-1 cells maintained in RPMI 1640 medium (Thermo Scientific) supplemented with 10% FBS (Thermo Scientific), 100 units/mL penicillin and 0.1 mg/mL streptomycin (Thermo Scientific) were seeded into 96-well plates at the density of 0.2 million cells per well and then treated with compounds for 24 h. Lipopolysaccharide was subsequently added at the final concentration of 1 μg/mL for 24 h. Culture supernatant was collected for measurement of TNF-α concentration by a TR-FRET-based method (Degorce, François, et al. Current chemical genomics. 2009, 3: 22) as described by the manufacturer manual (Cisbio). FRET signals were measured using a PHERAstar FSX reader (BMG Labtech).

IRAK4 [2] = molecular target: T1, IRAK4 (Homo sapiens, UniProt Q9NWZ3); experiment: IRAK4 Degradation Assay with Human Serum (Karpas299, HTRF/TR-FRET); details: Karpas-299 in human serum, 24 hrs treatment; for DC50: read-out: IRAK4 degradtion with human serum assay DC50; for Dmax: read-out: IRAK4 degradtion with human serum assay Dmax (%)
T1 construct: endogenous in cells; host or cells: Karpas299
T1 sequence (Q9NWZ3 1-460): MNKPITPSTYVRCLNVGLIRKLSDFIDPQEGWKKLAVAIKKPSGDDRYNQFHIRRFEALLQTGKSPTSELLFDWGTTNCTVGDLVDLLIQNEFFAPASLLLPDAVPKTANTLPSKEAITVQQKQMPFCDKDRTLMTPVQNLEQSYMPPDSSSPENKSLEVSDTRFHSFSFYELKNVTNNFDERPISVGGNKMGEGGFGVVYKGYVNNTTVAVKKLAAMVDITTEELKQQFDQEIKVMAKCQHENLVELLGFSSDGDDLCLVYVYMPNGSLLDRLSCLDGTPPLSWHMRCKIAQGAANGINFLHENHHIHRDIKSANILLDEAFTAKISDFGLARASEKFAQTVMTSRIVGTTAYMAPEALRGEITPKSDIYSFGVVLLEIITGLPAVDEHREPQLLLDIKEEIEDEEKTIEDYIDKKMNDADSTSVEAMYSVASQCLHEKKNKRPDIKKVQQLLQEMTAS
In short: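 Remaining IRAK4 measured by TR-FRET immunoassay on lysates of Karpas299 cells exposed 24 h to compound dilution series in human serum AB. DC50 derived from a Hill-slope fit of % degradation versus concentration.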

IRAK4 [3] = molecular target: T1, IRAK4; experiment: IRAK4 Degradation Assay (Karpas299, HTRF/TR-FRET); details: Karpas-299 cells; for Dmax: maximum percentage of degradation
In short: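 Compound potency as DC50 (IC50) came from four-parameter fits of percent IRAK4 degradation. IRAK4 was measured by HTRF (665/620 nm) in lysates of Karpas299 cells seeded at 0.2 million per well. Cells had been treated with compound dilutions for 5 or 24 h.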

[4] = 24 h treatment, read-out: IRAK4 in Karpas-299 (24 h) Dmax (%)
[5] = 24 h treatment, read-out: IRAK4 in Karpas-299 (24 h) DC50
[6] = 5 h treatment, read-out: IRAK4 in Karpas-299 (5 h) Dmax (%)
[7] = 5 h treatment, read-out: IRAK4 in Karpas-299 (5 h) DC50

SMILES | pIC50 [1] | DC50 (IRAK4 [2]) | Dmax (IRAK4 [2]) | Dmax (IRAK4 [3]; [4]) | DC50 (IRAK4 [3]; [5]) | Dmax (IRAK4 [3]; [6]) | DC50 (IRAK4 [3]; [7]) | Emax [1]
C[C@@H]1CN(C2CN(c3cc(F)c([C@H]4CCC(=O)NC4=O)c(F)c3)C2)CCN1[C@H]1CC[C@H](n2cc3cc(NC(=O)c4ccc5cc(C#N)cnn45)c(C(C)(C)O)cc3n2)CC1 [Example 302, 3-cyano-N-(2-((1R,4r)-4-((R)-4-(1-(4-((R)-2,6-dioxopiperidin-3-yl)-3,5-difluorophenyl)azetidin-3-yl)-2-methylpiperazin-1-yl)cyclohexyl)-6-(2-hydroxypropan-2-yl)-2H-indazol-5-yl)pyrrolo[1,2-b]pyridazine-7-carboxamide] | 7.42 | 8.8 nM | 96% | 98% | 0.8 nM | – | – | 84%
C[C@@H]1CN([C@H]2CC[C@H](n3cc4cc(NC(=O)c5ccc6cc(C#N)cnn56)c(C(C)(C)O)cc4n3)CC2)CCN1C(=O)C1CN(c2cc(F)c([C@H]3CCC(=O)NC3=O)c(F)c2)C1 [Example 309, 3-cyano-N-(2-((1R,4r)-4-((R)-4-(1-(4-((R)-2,6-dioxopiperidin-3-yl)-3,5-difluorophenyl)azetidine-3-carbonyl)-3-methylpiperazin-1-yl)cyclohexyl)-6-(2-hydroxypropan-2-yl)-2H-indazol-5-yl)pyrrolo[1,2-b]pyridazine-7-carboxamide] | 7.51 | 14 nM | 100% | 97% | 0.4 nM | – | – | 90%
C[C@H]1CN([C@H]2CC[C@H](n3cc4cc(NC(=O)c5ccc6cc(C#N)cnn56)c(C(C)(C)O)cc4n3)CC2)CCN1C(=O)C1CN(c2cc(F)c([C@H]3CCC(=O)NC3=O)c(F)c2)C1 [Example 311, 3-cyano-N-(2-((1S,4r)-4-((S)-4-(1-(4-((R)-2,6-dioxopiperidin-3-yl)-3,5-difluorophenyl)azetidine-3-carbonyl)-3-methylpiperazin-1-yl)cyclohexyl)-6-(2-hydroxypropan-2-yl)-2H-indazol-5-yl)pyrrolo[1,2-b]pyridazine-7-carboxamide] | 7.54 | 15 nM | 99% | 98% | 0.8 nM | – | – | 91%
CC(C)(O)c1cc2nn([C@H]3CC[C@H](N4CCN(C(=O)[C@@H]5CCN(c6cc(F)c([C@H]7CCC(=O)NC7=O)c(F)c6)C5)CC4)CC3)cc2cc1NC(=O)c1ccc2cc(C#N)cnn12 [Example 181, 3-cyano-N-(2-((1R,4r)-4-(4-((R)-1-(4-((R)-2,6-dioxopiperidin-3-yl)-3,5-difluorophenyl)pyrrolidine-3-carbonyl)piperazin-1-yl)cyclohexyl)-6-(2-hydroxypropan-2-yl)-2H-indazol-5-yl)pyrrolo[1,2-b]pyridazine-7-carboxamide] | 7.52 | 11 nM | 101% | 97% | 0.4 nM | 97% | 2 nM | 69%
CC(C)(O)c1cc2nn([C@H]3CC[C@H](N4CCN(CCNc5cc(F)c([C@H]6CCC(=O)NC6=O)c(F)c5)CC4)CC3)cc2cc1NC(=O)c1ccc2cc(C#N)cnn12 [Example 194, 3-cyano-N-(2-((1R,4r)-4-(4-(2-((4-((R)-2,6-dioxopiperidin-3-yl)-3,5-difluorophenyl)amino)ethyl)piperazin-1-yl)cyclohexyl)-6-(2-hydroxypropan-2-yl)-2H-indazol-5-yl)pyrrolo[1,2-b]pyridazine-7-carboxamide] | 7.52 | 6.2 nM | 96% | 98% | 1.1 nM | 93% | 1.6 nM | 53%
COc1cc(N2CC(C(=O)N3CCN([C@H]4CC[C@H](n5cc6cc(NC(=O)c7ccc8cc(C#N)cnn78)c(C(C)(C)O)cc6n5)CC4)CC3)C2)ccc1N1CCC(=O)NC1=O [Example 269] | 7.62 | 11 nM | 94% | 97% | 1.8 nM | – | – | 89%
C[C@H]1CN(C(=O)C2CN(c3cc(F)c([C@H]4CCC(=O)NC4=O)c(F)c3)C2)CCN1[C@H]1CC[C@H](n2cc3cc(NC(=O)c4ccc5cc(C#N)cnn45)c(C(C)(C)O)cc3n2)CC1 [Example 304, 3-cyano-N-(2-((1S,4r)-4-((S)-4-(1-(4-((R)-2,6-dioxopiperidin-3-yl)-3,5-difluorophenyl)azetidine-3-carbonyl)-2-methylpiperazin-1-yl)cyclohexyl)-6-(2-hydroxypropan-2-yl)-2H-indazol-5-yl)pyrrolo[1,2-b]pyridazine-7-carboxamide] | 7.51 | 65 nM | 97% | 96% | 0.5 nM | – | – | 88%

Continued, in another order:

pIC50 [1] | DC50 (IRAK4 [2]) | Dmax (IRAK4 [2]) | Dmax (IRAK4 [3]; [4]) | DC50 (IRAK4 [3]; [5]) | Dmax (IRAK4 [3]; [6]) | DC50 (IRAK4 [3]; [7]) | SMILES | Emax [1]
7.92 | 14 nM | 102% | 98% | 1.3 nM | – | – | COc1cc(N2CC(C(=O)N3CCN([C@H]4CC[C@H](n5cc6cc(NC(=O)c7ccc8cc(C#N)cnn78)c7c(c6n5)OCO7)CC4)CC3)C2)ccc1[C@H]1CCC(=O)NC1=O [Example 356] | 90%
7.36 | 10 nM | 93% | 98% | 2.4 nM | – | – | CC(C)(O)c1cc2nn(C34CC(N5CCN(CC6CN(c7cc(F)c(N8CCC(=O)NC8=O)c(F)c7)C6)CC5)(C3)C4)cc2cc1NC(=O)c1ccc2cc(C#N)cnn12 [Example 354, 3-cyano-N-(2-(3-(4-((1-(4-(2,4-dioxotetrahydropyrimidin-1(2H)-yl)-3,5-difluorophenyl)azetidin-3-yl)methyl)piperazin-1-yl)bicyclo[1.1.1]pentan-1-yl)-6-(2-hydroxypropan-2-yl)-2H-indazol-5-yl)pyrrolo[1,2-b]pyridazine-7-carboxamide] | 96%
7.77 | 5.4 nM | 96% | 99% | 0.5 nM | 95% | 1.9 nM | COC[C@@H]1CN([C@H]2CC[C@H](n3cc4cc(NC(=O)c5ccc6cc(C#N)cnn56)c(C(C)(C)O)cc4n3)CC2)CCN1CC1CN(c2cc(F)c([C@H]3CCC(=O)NC3=O)c(F)c2)C1 [Example 358, 3-cyano-N-(2-((1S,4r)-4-((S)-4-((1-(4-((R)-2,6-dioxopiperidin-3-yl)-3,5-difluorophenyl)azetidin-3-yl)methyl)-3-(methoxymethyl)piperazin-1-yl)cyclohexyl)-6-(2-hydroxypropan-2-yl)-2H-indazol-5-yl)pyrrolo[1,2-b]pyridazine-7-carboxamide] | 96%
7.72 | 10 nM | 98% | 96% | 0.6 nM | – | – | CC(C)(O)c1cc2nn([C@H]3C[C@H](N4CCN(C5CCN(c6cc(F)c([C@H]7CCC(=O)NC7=O)c(F)c6)CC5)CC4)C3)cc2cc1NC(=O)c1ccc2cc(C#N)cnn12 [Example 330, 3-cyano-N-(2-((1R,3r)-3-(4-(1-(4-((R)-2,6-dioxopiperidin-3-yl)-3,5-difluorophenyl)piperidin-4-yl)piperazin-1-yl)cyclobutyl)-6-(2-hydroxypropan-2-yl)-2H-indazol-5-yl)pyrrolo[1,2-b]pyridazine-7-carboxamide] | 89%
7.66 | 18 nM | 99% | 95% | 0.6 nM | 97% | 0.9 nM | COC[C@H]1CN([C@H]2CC[C@H](n3cc4cc(NC(=O)c5ccc6cc(C#N)cnn56)c(C(C)(C)O)cc4n3)CC2)CCN1C(=O)C1CN(c2cc(F)c(N3CCC(=O)NC3=O)c(F)c2)C1 [Example 315, 3-cyano-N-(2-((1R,4r)-4-((R)-4-(1-(4-(2,4-dioxotetrahydropyrimidin-1(2H)-yl)-3,5-difluorophenyl)azetidine-3-carbonyl)-3-(methoxymethyl)piperazin-1-yl)cyclohexyl)-6-(2-hydroxypropan-2-yl)-2H-indazol-5-yl)pyrrolo[1,2-b]pyridazine-7-carboxamide] | 93%
